Source: patent US11985974B2, “Antimicrobial ferulic acid derivatives and uses thereof” (WISCONSIN ALUMNI RESEARCH FOUNDATION, priority 2014, dated 2024)
Entries after “also recorded” stand apart in the source; their conditions may differ.

Experiments:
Format in all cases: cell-based, Saccharomyces cerevisiae
[1] = tested on: bck1Δ mutant; experiment: Sensitivity of individual bck1Δ mutant; conditions: bck1Δ mutant vs control strain
Method: The diferulate compounds tested were synthesized as described by Lu et al. (2012) and resuspended in DMSO. Caspofungin, nikkomycin Z, and MMS were purchased from Sigma-Aldrich. Echinocandin B was a gift from O. Kondo (Chugai Pharmaceuticals, Tokyo, Japan). Micafungin was provided by Astellas Pharma. Diferulates were initially screened at a concentration of 1 mg/mL to determine bioactivity. Cells of Saccharomyces cerevisiae (MATα pdr1Δ::natMX pdr3Δ::KLURA3 snq2Δ::KI.LEU2 can1Δ::STE2pr-Sp_his5 lyp1Δ his3Δ1 leu2Δ0 ura3Δ0 met15Δ0), referred to as the control strain, were grown in 200-μL cultures at 30° C. in YPD with a drug or DMSO control. Plates were read on a TECAN M1000 over a 48-h growth period. The specific growth rate was calculated using GCAT analysis software (https://gcat3-pub.glbrc.org/) (Sato et al. 2014). When presented, IC50 values for growth rate inhibition were calculated from triplicate eight-point dose curves and SigmaPlot 12.0. When presented, error bars are means±SEs of at least three replicates.

[2] = tested on: poacic acid-resistant mutant (SUR1); experiment: Poacic acid-resistant mutant (PAr) with SNP in SUR1
Method: Agar containing 500 μg/mL poacic acid was inoculated with ˜1 million cells of yeast (control strain). After 1 wk, two colonies were found growing on the agar. Single-colony isolates were obtained and found to be resistant to poacic acid. For whole-genome sequencing, single-colony isolates of poacic acid-resistant mutant, the caspofungin-resistant mutant, and the control strain (WT) were grown in triplicate 200-μL cultures and pooled for genomic DNA extraction (Epicentre MasterPure Yeast Kit; MPY80200). The genomic DNA was prepared for Illumina whole-genome sequencing using the Illumina TruSeqKkit (FC-121-3001) and sequenced by 150-bp paired-end reads on the MiSeq platform.
To determine mutations in the drug-resistant mutants, read quality analysis was performed using FastQC (www.bioinformatics.babraharm.ac.uk/projects/fastqc/). Short reads were examined for quality and trimmed at the 3′ end when average base quality in a 3-nt window fell below Q30. Short reads were mapped to the standard S. cerevisiae reference genome, strain S288c (obtained from the National Center for Biotechnology Information RefSeq repository), using Burrows-Wheeler Alignment (BWA version 0.6.2) (Li et al. 2009) using the default parameters, with the exception of the fraction of missing alignments threshold, which was set at 0.08 (−n in bwa aln). […]

[3] = tested on: yeast deletion collection; experiment: Chemical genomic analysis of yeast deletion collection
Method: Chemical genomic analysis of poacic acid was performed as described previously (Parsons et al. 2006, Fung et al. 2014). The tested yeast deletion collection had ˜4,000 strains using the genetic background described by Andrusiak (Andrusiak 2012). The optimal inhibitory concentration of poacic acid for chemical genomic profiling [70-80% growth vs. solvent control in yeast extract-peptone-galactose medium after 24 h of growth] was determined using an eight-point dose curve. A concentration of 88 μg/mL inhibited growth within this range; 200-μL cultures of the pooled deletion collection of S. cerevisiae were grown with 88 μg/mL poacic acid (n=3) or a DMSO control in triplicate for 48 h at 30° C. Genomic DNA was extracted using the Epicentre MasterPure Yeast DNA Purification Kit. Mutant-specific molecular barcodes were amplified with specially designed multiplex primers (Smith et al. 2009). The barcodes were sequenced using an Illumina MiSeq. Replicates of each condition, poacic acid (n=3) or DMSO (n=2), were sequenced. The barcode counts for each yeast deletion mutant in the presence of poacic acid were compared to the DMSO control conditions to determine sensitivity or resistance of individual strains (the chemical genetic interaction score) (Parsons et al. 2006). To determine a P value for each top sensitive and resistant mutant, we used the EdgeR package (Robinson et al. 2014, Robinson et al. 2010). A Bonferroni-corrected hypergeometric distribution test was used to search for significant enrichment of GO terms among the top 10 sensitive and resistant deletion mutants (Boyle et al. 2004). To understand the pathways that were most affected by poacic acid, we developed a protein complex/pathway score based on the summation of the z scores for each complex/pathway (Pathway z score). Correlation of the chemical genomic profile of poacic acid with the yeast genetic interaction network was performed as previously described (Costanzo et al. 2010).
For each complex, the chemical genetic interaction score of the genes in the complex with the compound was summed. To determine significance, the expectations for such a sum for random sets of genes of equal size were calculated. The random sets of equal size were expected to have means equal to the background mean and SDs equal to the background SD/sqrt(n). With this information, a z score (number of SDs from the expected mean) for each complex or pathway can be computed: Pathway z-score=(Σ−μ)/(σ×sqrt(n)), where Σ=sum of the chemical genetic interaction scores of genes in the complex, μ=mean of the chemical genetic interaction scores of the compounds with all genes studies, σ=SD of chemical genetic interaction scores of the compounds with all genes in the study, and n=size of the complex. Multivariate Morphological Analysis

SMILES: COc1cc(/C=C/c2cc(/C=C/C(=O)O)cc(OC)c2O)ccc1O [poacic acid, (E)-4-Hydroxy-3-{2-[(E)-4-hydroxy-3-methoxystyryl]}-5-methoxycinnamic acid]
- reduction in the IC50 compared with the control strain (WT) [1]: six-fold reduction; also recorded: six-fold more sensitive
- resistance compared with the control strain ([2]; PAr mutant with SNP in SUR1): increased resistance
- colony formation on agar ([2]; spontaneous chain-termination mutant in SUR1, agar with 500 μg poacic acid/mL): able to form colonies
- growth vs. solvent control ([3]; 88 μg/mL, yeast extract-peptone-galactose medium, 24 h): 70-80%
- Z Score ([3]; ACK1 deletion mutant, sensitive): ACK1 −9.09 1.39E
- Z Score ([3]; ALG6 deletion mutant, sensitive): ALG6 −8.30 1.82E
- Z Score ([3]; BCK1 deletion mutant, sensitive): BCK1 −12.91 2.58E
- Z Score ([3]; CSG2 deletion mutant, resistant): CSG2 5.89 1.57E
- Z Score ([3]; CWH43 deletion mutant, sensitive): CWH43 −10.99 7.98E
- Z Score ([3]; DFG5 deletion mutant, resistant): DFG5 5.51 1.34E
- Z Score ([3]; DSF2 deletion mutant, resistant): DSF2 5.32 6.68E
- Z Score ([3]; EMC4 deletion mutant, sensitive): EMC4 −7.92 1.90E
- Z Score ([3]; ERG2 deletion mutant, sensitive): ERG2 −7.80 4.76E
- Z Score ([3]; FYV8 deletion mutant, sensitive): FYV8 −9.11 1.11E
- Z Score ([3]; LCL1 deletion mutant, resistant): LCL1 5.79 4.51E
- Z Score ([3]; NBP2 deletion mutant, resistant): NBP2 5.43 1.57E
- Z Score ([3]; NUP170 deletion mutant, resistant): NUP170 5.33 2.79E
- Z Score ([3]; PIB2 deletion mutant, resistant): PIB2 4.96 2.79E
- Pathway z score ([3]; PKC pathway (most sensitive pathway), 88 μg/mL): −7.85
- Z Score ([3]; RGD1 deletion mutant, sensitive): RGD1 −10.16 1.21E
- Z Score ([3]; ROM2 deletion mutant, sensitive): ROM2 −9.47 8.88E
- Z Score ([3]; RPL21B deletion mutant, resistant): RPL21B 4.81 1.11E
- Z Score ([3]; RTS1 deletion mutant, resistant): RTS1 5.39 6.26E
- Z Score ([3]; SNG1 deletion mutant, sensitive): SNG1 −7.91 8.96E
- Z Score ([3]; SUR1 deletion mutant, resistant): SUR1 5.21 5.34E
